# Experimental data from the kinase profiling compilation of Christmann-Franck et al. (2016).
# Molecular target: SGK1 (human) (UniProt O00141)
# Test: Flashplate
# Chain of SGK1 (human) (O00141 whole entry, looked up): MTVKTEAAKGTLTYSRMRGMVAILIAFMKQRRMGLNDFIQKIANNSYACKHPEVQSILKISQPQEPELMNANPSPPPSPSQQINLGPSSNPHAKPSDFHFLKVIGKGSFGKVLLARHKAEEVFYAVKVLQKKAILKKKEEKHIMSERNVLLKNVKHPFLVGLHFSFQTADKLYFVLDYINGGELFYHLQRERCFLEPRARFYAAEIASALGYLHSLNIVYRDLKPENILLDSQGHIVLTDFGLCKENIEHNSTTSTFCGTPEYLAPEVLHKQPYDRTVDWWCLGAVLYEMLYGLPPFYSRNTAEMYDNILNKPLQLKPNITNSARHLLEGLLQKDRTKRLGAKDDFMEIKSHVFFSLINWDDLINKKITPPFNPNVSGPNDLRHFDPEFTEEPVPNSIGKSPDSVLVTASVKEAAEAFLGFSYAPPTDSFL
row,Compound,Ki [µM]
1,O=c1c(NCc2ccc(Cl)c(Cl)c2)c(Nc2ccncc2)c1=O,0.501
2,NC(=O)Cn1cc(-c2cc(-c3cc4ccccc4s3)c3[nH]ncc3c2)c2nc(N)ncc21,> 10
3,COCCO[C@H]1CC[C@H](n2nc(-c3ccc(Nc4nc5cc(C)cc(Cl)c5o4)cc3)c3c(N)ncnc32)CC1,> 10
4,Cc1ccc(C(=O)Nc2ccon2)cc1Nc1ncnc2c1cnn2-c1ccccc1,> 10
5,CCCC(=O)Nc1n[nH]c2ccc(-c3cccc(F)c3F)cc12,> 10
6,O=c1[nH]cc(I)c2nc(-c3ccccc3)cn12,> 10
7,COc1cc(-c2ccc3c(c2)Nc2ccc(C(=O)NCc4cccc(F)c4)cc2NC3=O)ccc1O,> 10
8,Cc1cc(O)ccc1-n1cc(C(=O)NN)c(=O)c2ccc(-c3ccncc3)cc21,> 10
9,CN(c1ncccc1CNc1nc(Nc2ccc3c(c2)CC(=O)N3)ncc1C(F)(F)F)S(C)(=O)=O,2.51
10,c1ccc(COc2ccc(Nc3ncnc4ccccc34)cc2)cc1,> 10
11,CCc1c(-c2ccc(C(C)(C)O)cc2)[nH]c2nccnc12,> 10
12,COc1cc(CN2CCCCC2)c(Cl)cc1NC(=O)Nc1cnc(C#N)cn1,> 10
13,CCCC(=O)Nc1n[nH]c2ccc(-c3nnn(Cc4ccccc4)c3-c3ccccc3)cc12,1.58
14,Cc1cccc(NC(=O)Nc2ccc(-c3cncc4c3c(N)nn4C)cc2)c1,> 7.94
15,Cc1cc(C)c(/C=C2\C(=O)Nc3ccccc32)[nH]1,2
16,COc1cccc(/C=C2/S/C(=N\c3ccccc3)NC2=O)c1,> 10
17,CCNc1nc2cc(Cl)c(OC)cc2nc1NCC,> 10
18,O=C(Nc1n[nH]c2ccc(-c3cn(Cc4ccccc4)nn3)cc12)c1cccc(F)c1,0.1
19,O=C(Nc1cccc(C(F)(F)F)n1)Nc1ccnc2c(Cl)c(Cl)ccc12,> 10
20,CCS(=O)(=O)c1ccc(-c2cncc3sc(C(N)=O)cc23)cc1,3.98
21,COc1cccc2c1Nc1cc(Nc3ccncc3)ccc1C(=O)N2,> 10
22,Cc1ccc(-n2nc(C)c3c(=O)c4cc(Cl)ccc4n(O)c32)cc1,> 10

row,Compound,Ki [µM]
1,NC(=O)c1cccc2[nH]c(-c3ccncc3)nc12,6.31
2,COc1cc(N2CCC(N3CCN(C)CC3)CC2)ccc1Nc1ncc(Cl)c(Nc2ccccc2S(=O)(=O)C(C)C)n1,> 10
3,CC(C)(C)NC(=O)c1ccc2nc3[nH]c4ccccc4c3nc2c1,> 10
4,Brc1cnc2[nH]cc(-c3ccccc3)c2c1,1.58
5,CN(C(=O)C1CCCCC1)c1ccc2c(c1)nc(NC(=O)c1ccc(C#N)cc1)n2C,> 10
6,C#Cc1cccc(Nc2ncnc3cc(OCCOC)c(OCCOC)cc23)c1,> 10
7,Cc1nn(-c2ccccc2)c2c1c(=O)c1cc(Cl)ccc1n2O,> 10
8,CC(=O)N(c1ccncc1)c1c(N[C@H](C)C(C)(C)C)c(=O)c1=O,> 10
9,Cc1ccc(F)c(NC(=O)Nc2ccc(-c3cncc4c3c(N)nn4C)cc2)c1,> 10
10,COc1ccc(C(=O)Nc2n[nH]c3ccc(-c4cn(Cc5ccccc5)nn4)cc23)cc1OC,1
11,CC(=O)c1cccc(-c2cnc3[nH]ccc3c2)c1,> 10
12,OC1CCN(c2ncnc3[nH]cc(-c4ccccc4)c23)CC1,3.98
13,Cc1ccc(Nc2nc3ccc([N+](=O)[O-])cc3[nH]2)nc1,0.794
14,N[C@H](COc1cncc(/C=C/c2ccncc2)c1)Cc1ccccc1,> 10
15,NCCNS(=O)(=O)c1cccc(C(=O)Nc2ccc(-c3n[nH]c(=O)c4ccccc34)cc2)c1,> 10
16,Fc1ccc(-c2nc(-c3ccc(F)cc3)c(-c3ccncc3)[nH]2)cc1,> 10
17,N[C@H](COc1cncc(-c2cc3ccncc3s2)c1)Cc1c[nH]c2ccccc12,0.0501
18,Cc1n[nH]c2ncc(C#N)c(-c3ccccc3)c12,3.98
19,COc1nccn2c(-c3ccnc(NCC(C)(C)CO)n3)c(-c3ccc(F)cc3F)nc12,> 10
20,Nc1ccc(-c2cncc(OC[C@@H](N)Cc3c[nH]c4ccccc34)c2)cc1C(=O)c1ccccc1,> 10
21,Cc1nsc2[nH]cc(C(=O)O)c(=O)c12,> 10
22,COc1cc(-c2ccc3[nH]nc(C(=O)Nc4ccccc4)c3c2)ccc1O,> 10

row,Compound,Ki [µM]
1,CC(C)(CO)c1nnc2ccc(-c3c(-c4ccc(F)cc4F)nc4occn34)nn12,> 10
2,Cc1cc(C)c2oc(Nc3ccc(-c4cccc(C(N)=O)c4N)cc3F)nc2c1,> 10
3,Brc1ccc2c(c1)-c1[nH]ncc1C2,> 10
4,Cn1nc(N)c2c(-c3ccc(NC(=O)Nc4cccc(C(F)(F)F)c4)cc3)cncc21,> 10
5,O=C(O)c1cc2c(-c3ccccc3)cncc2s1,3.98
6,C#Cc1cc2c(cc1OC)-c1[nH]nc(-c3ccc(C#N)nc3)c1C2,> 10
7,O=C(N/N=C/c1ccc(O)cc1O)Nc1cccc2nsnc12,0.126
8,CCOc1nc(C(=O)NCc2ccccc2S(N)(=O)=O)cc(N)c1Cl,> 10
9,CNS(=O)(=O)c1ccccc1Nc1nc(Nc2cc(OC)c(OC)c(OC)c2)ncc1Cl,> 5.01
10,N[C@H](COc1cc(/C=C/c2ccncc2)cnc1Cl)Cc1c[nH]c2ccccc12,> 10
11,Cn1nc(C(F)(F)F)c2c(=O)c3cc(Cl)ccc3n(O)c21,> 10
12,O=C(Nc1n[nH]c2ccc(-c3cn(Cc4ccccc4)nn3)cc12)c1ccccc1,0.0631
13,Nc1n[nH]c2cccc(-c3ccc(Br)cc3)c12,5.01
14,C[C@@H](N)C1CCC(C(=O)Nc2ccnc3[nH]ccc23)CC1 (stereo not given in full),> 10
15,Cc1cn2c(-c3ccnc(NCC(C)(C)CO)n3)c(-c3ccc(F)cc3F)nc2c(C)n1,> 10
16,N[C@H](COc1cncc(-c2ccc3c(c2)/C(=C/c2ccco2)C(=O)N3)c1)Cc1c[nH]c2ccccc12,0.0251
17,Cc1n[nH]c2ccc(-c3cncc(OC[C@@H](N)Cc4cccc(OC(F)(F)F)c4)c3)cc12,0.316
18,Cc1cc(C)cc(NC(=O)Nc2ccc(-c3c(C)sc4ncnc(N)c34)cc2)c1,7.94
19,c1ccc(CNc2nc(-c3ccc4[nH]ncc4c3)cs2)cc1,> 6.31
20,CN(C)S(=O)(=O)c1ccccc1-c1ccc2c(c1)Nc1ccccc1NC2=O,> 10
21,CC[C@@H]1C(=O)N(C)c2cnc(Nc3ccc(C(=O)NC4CCCCC4)cc3OC)nc2N1C1CCCC1,> 10
22,CNC(=O)/C=C/c1cnc(N)c2c(-c3ccc4c(c3)OCO4)csc12,> 10

row,Compound,Ki [µM]
1,COC(=O)c1ccccc1-c1ccc2c(c1)Nc1ccccc1NC2=O,> 10
2,NCC(NC(=O)c1ccc(-c2ccncc2)cc1)c1ccccc1 (stereo not given),0.316
3,CC(C)Oc1nccn2c(-c3ccnc(NCC(C)(C)O)n3)c(-c3ccc(F)cc3F)nc12,> 10
4,NC(=O)c1c(OCc2c(F)cc(Br)cc2F)nsc1NC(=O)NCCCCN1CCCC1,> 10
5,O=c1[nH]c2cnc(-n3cnc4ccc(F)cc43)nc2n1[C@@H]1CCOc2c(F)cccc21,> 10
6,CN(C(=O)C1CCCCC1)c1ccc2c(c1)nc(NC(=O)c1ccc(C#N)cc1)n2CCC(N)=O,> 10
7,Nc1c(-c2ccccc2)c2cc(Cl)ccc2[nH]c1=O,> 10
8,Nc1ncnc2scc(-c3ccc(NC(=O)Nc4cc(C(F)(F)F)ccc4F)cc3)c12,3.16
9,Cc1nc2c(sc3c(Br)ccc(Cl)c32)c(=O)o1,> 10
10,O=c1[nH]c2ccc(Cl)cc2c(-c2ccccc2)c1C1=NNC(c2ccccc2)C1 (stereo not given),> 10
11,O=c1c2c([nH]c3cc(-c4ccco4)nn13)CSC2,> 10
12,Cc1ccc2c(c1)NC(=O)c1ccccc1N2,> 10
13,COCCN(C)C(=O)c1c(-c2ccc3[nH]ncc3c2)nnn1Cc1ccccc1,1.58
14,Cc1c(-c2ccc3[nH]nc(N)c3c2)nnn1Cc1ccccc1,0.316
15,COc1nccc(-c2c(-c3ccc(F)cc3)ncn2[C@H]2CC[C@H](O)CC2)n1,> 10
16,CN(C)C(=O)c1c(-c2ccc3[nH]ncc3c2)nnn1Cc1ccccc1,2
17,CN(C)CCCC(=O)Nc1n[nH]c2nnc(-c3cccc(F)c3F)cc12,> 10
18,CCOc1ccccc1/C=N/NC(=O)c1nnn(-c2nonc2N)c1N1CCCC1,> 10
19,CCn1c(-c2nonc2N)nc2cnc(Oc3cccc(NC(=O)c4ccc(OCCN5CCOCC5)cc4)c3)cc21,0.2
20,COc1cc(S(C)(=O)=O)c(OC)cc1CC(=O)Nc1cc(N)c(C#N)c(OC(C)C)n1,> 10
21,CCn1c2cc(Cl)c(F)cc2c(=O)c2c(=O)o[nH]c21,> 10
22,CN(C)CCCOc1cc2c(c(-c3ccc(Nc4nc5ccccc5o4)cc3)c1)CNC2=O,> 10

row,Compound,Ki [µM]
1,Cc1cc(O)ccc1-n1cc(C(N)=O)c(=O)c2ccc(-c3ccncc3)cc21,> 10
2,NC(=O)c1cccc2[nH]c(-c3cccc(NCCN4CCCC4)n3)nc12,> 10
3,CC(C)(C)n1nc(-c2ccc(Cl)cc2)c2c(N)ncnc21,> 6.31
4,Fc1cnc(Nc2ccccc2)nc1Nc1ccccc1,> 10
5,Cc1cc(Nc2cc(N3CCN(C)CC3)nc(/C=C/c3ccccc3)n2)n[nH]1,> 10
6,N#Cc1ccc2nc(N)n(-c3nc(-c4ccccc4)cs3)c2c1,> 10
7,CCCC(=O)Nc1cccc(-c2nc(Nc3ccc4[nH]ncc4c3)c3cc(OCCN4CCCC4)ccc3n2)c1,0.501
8,Nc1ncnc2c1N=C(c1ccc(NC(=O)Nc3cc(C(F)(F)F)ccc3F)cc1)CCN2,2.51
9,O=C(NCc1ccc(Cl)cc1)Nc1cccc2[nH]ncc12,> 10
10,Cc1cccc(NC(=O)Nc2ccc(-c3cccc(C(N)=O)c3)cc2)c1,> 10
11,Clc1cc(-c2c[nH]c3ncccc23)nc(NC2CCCCC2)n1,0.794
12,OCCCn1cnc(-c2ccccc2)c1-c1ccncc1,> 10
13,O=C1NCCc2[nH]c(-c3ccncc3)cc21,5.01
14,Nc1nccc2scc(-c3ccc(NC(=O)Nc4ccccc4C(F)(F)F)cc3)c12,> 10
15,Cc1cccc(NC(=O)Nc2ccc(-c3cccc4c3CNC4=O)cc2)c1,> 10
16,Cc1c(C=O)c(O)n2c(nc3ccccc32)c1C#N,> 10
17,Brc1ccc2[nH]nc(-c3ccccc3)c2c1,> 10
18,CC(C)(O)Cc1nnc2ccc(-c3c(-c4ccc(F)cc4F)nc4occn34)nn12,> 10
19,O=C(Nc1cccc(-c2nc3sccn3c2-c2ccnc(Nc3cccc(N4CCCC4=O)c3)n2)c1)c1c(F)cccc1F,> 10
20,NC[C@@H](O)[C@@H](O)Cn1cc(I)c2c(N)ncnc21,5.01
21,CCCn1cc(-c2cnc(N)c3c(-c4ccc(NC(=O)Nc5cccc(F)c5)cc4)csc23)cn1,> 10
22,O=C1/C(=N\Nc2cccc3c(=O)[nH][nH]c(=O)c23)C(c2ccccc2)=NN1c1ccccc1,> 10
